The results in this text go back to patent publication US10344025B2, “GLS1 inhibitors for treating disease” (Board of Regents, The University of Texas System, priority 2014, dated 2019).

The target in test [1] is purified recombinant human GAC (GLS1) (Homo sapiens (Human), UniProt O94925). The experiment in a line: GLS1 Enzymatic Activity Assay (dual-coupled enzymatic assay, resorufin/Amplex UltraRed readout).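 Further: glutamate from GAC coupled via glutamate oxidase and peroxidase to resorufin, read as fluorescence (ex 530, em 590 nm) kinetically or at 20 min, four-parameter logistic IC50 fit.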 Type of test: biochemical.
Test [2] deals with A549 cells. The experiment in a line: Proliferation Assay (A549 viability, Cell Titer Fluor, 72 hours). Type of test: cell-based. The note with it: Homo sapiens, A549, 72 h. In short, it runs like this:
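Cell Titer Fluor fluorescence after 72 h compound treatment (0.5% DMSO, 37 °C, 5% CO2) of A549 cells plated 24 h earlier at 1000/well. Four-parameter logistic fitting gave IC50.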

pEC50, pIC50: −log10 of the molar value.

purified recombinant human GAC (GLS1), sequence (O94925 other isoform, or with tags, fused parts or gaps): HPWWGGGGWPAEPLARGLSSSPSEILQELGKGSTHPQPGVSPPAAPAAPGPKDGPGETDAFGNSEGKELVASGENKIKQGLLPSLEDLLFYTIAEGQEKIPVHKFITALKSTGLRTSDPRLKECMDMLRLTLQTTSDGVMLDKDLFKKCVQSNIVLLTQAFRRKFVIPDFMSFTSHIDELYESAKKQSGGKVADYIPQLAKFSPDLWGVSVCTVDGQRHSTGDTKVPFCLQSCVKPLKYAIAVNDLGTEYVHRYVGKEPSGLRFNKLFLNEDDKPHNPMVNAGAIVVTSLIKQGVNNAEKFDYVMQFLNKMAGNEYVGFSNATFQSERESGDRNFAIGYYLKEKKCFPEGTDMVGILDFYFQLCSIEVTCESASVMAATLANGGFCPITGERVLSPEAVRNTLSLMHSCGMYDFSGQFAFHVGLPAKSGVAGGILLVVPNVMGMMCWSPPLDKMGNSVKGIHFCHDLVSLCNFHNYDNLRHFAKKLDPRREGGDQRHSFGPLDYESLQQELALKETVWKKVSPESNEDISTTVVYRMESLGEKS

Take `O=C(NCc1cc(OC(F)(F)F)ccc1F)c1cn(CCC(F)Cn2cc(C(=O)N[C@@H](CO)c3ccccc3)nn2)nn1` (stereo partly drawn) [Example 453, 1-{2-fluoro-4-[4-({[2-fluoro-5-(trifluoromethoxy)phenyl]methyl}carbamoyl)-1H-1,2,3-triazol-1-yl]butyl}-N-[(1R)-2-hydroxy-1-phenylethyl]-1H-1,2,3-triazole-4-carboxamide]: in test [1], the pIC50 is more than 7.00. This compound also gave a pEC50 in test [2] of 6.30 to 7.00.
`O=C(NCc1ccccc1F)c1cn(CCC(F)Cn2cc(C(=O)NCc3cc(C(F)(F)F)ccn3)nn2)nn1` (centres unmarked) [Example 454, 1-[2-fluoro-4-(4-{[(2-fluorophenyl)methyl]carbamoyl}-1H-1,2,3-triazol-1-yl)butyl]-N-{[4-(trifluoromethyl)pyridin-2-yl]methyl}-1H-1,2,3-triazole-4-carboxamide]: the pIC50 in test [1] is more than 7.00. In addition, the pEC50 in test [2] was 6.30 to 7.00.
`O=C(NCc1cccc(C(F)(F)F)c1)c1cn(CCC(F)Cn2cc(C(=O)NCc3cc(C(F)(F)F)ccn3)nn2)nn1` (centres unmarked) [Example 455, 1-{2-fluoro-4-[4-({[3-(trifluoromethyl)phenyl]methyl}carbamoyl)-1H-1,2,3-triazol-1-yl]butyl}-N-{[4-(trifluoromethyl)pyridin-2-yl]methyl}-1H-1,2,3-triazole-4-carboxamide]: the negative logarithm of the IC50 (pIC50) in test [1] is more than 7.00. This compound also showed a negative-log EC50 (pEC50) in test [2] of more than 7.00.
On to `O=C(NCC1CCCCC1)c1cn(CCC(F)Cn2cc(C(=O)NCc3cc(C(F)(F)F)ccn3)nn2)nn1` (centres unmarked) [Example 456, 1-(4-{4-[(cyclohexylmethyl)carbamoyl]-1H-1,2,3-triazol-1-yl}-2-fluorobutyl)-N-{[4-(trifluoromethyl)pyridin-2-yl]methyl}-1H-1,2,3-triazole-4-carboxamide], for which, in test [1], the pIC50 is more than 7.00. Besides, the negative logarithm of the EC50 (pEC50) in test [2] is more than 7.00.
On to `O=C(NCC1CCOCC1)c1cn(CCC(F)Cn2cc(C(=O)NCc3cc(C(F)(F)F)ccn3)nn2)nn1` (centres unmarked) [Example 457, 1-(2-fluoro-4-{4-[(oxan-4-ylmethyl)carbamoyl]-1H-1,2,3-triazol-1-yl}butyl)-N-{[4-(trifluoromethyl)pyridin-2-yl]methyl}-1H-1,2,3-triazole-4-carboxamide], for which the pIC50 in test [1] was 5.30 to 6.30. In addition, in test [2], the pEC50 was 5.30 to 6.30.
For `C[C@H](NC(=O)c1cn(CCC(F)Cn2cc(C(=O)NCc3cc(C(F)(F)F)ccn3)nn2)nn1)c1ccccc1` (stereo partly drawn) [Example 458, 1-[2-fluoro-4-(4-{[(1S)-1-phenylethyl]carbamoyl}-1H-1,2,3-triazol-1-yl)butyl]-N-{[4-(trifluoromethyl)pyridin-2-yl]methyl}-1H-1,2,3-triazole-4-carboxamide], the pIC50 in test [1] was 6.30 to 7.00. In test [2], this compound gave a pEC50 of 6.30 to 7.00.
Turning to `O=C(NCc1ccc(F)cc1)c1cn(CCC(F)Cn2cc(C(=O)NCc3cc(C(F)(F)F)ccn3)nn2)nn1` (centres unmarked) [Example 459, 1-[2-fluoro-4-(4-{[(4-fluorophenyl)methyl]carbamoyl}-1H-1,2,3-triazol-1-yl)butyl]-N-{[4-(trifluoromethyl)pyridin-2-yl]methyl}-1H-1,2,3-triazole-4-carboxamide], in test [1], the pIC50 is more than 7.00. The compound also gave a negative logarithm of the EC50 (pEC50) in test [2] of 6.30 to 7.00.
On to `O=C(NCc1ccccc1)c1cn(CCC(F)Cn2cc(C(=O)NCc3cc(C(F)(F)F)ccn3)nn2)nn1` (centres unmarked) [Example 460, 1-{4-[4-(benzylcarbamoyl)-1H-1,2,3-triazol-1-yl]-2-fluorobutyl}-N-{[4-(trifluoromethyl)pyridin-2-yl]methyl}-1H-1,2,3-triazole-4-carboxamide], for which, in test [1], the negative logarithm of the IC50 (pIC50) was 6.30 to 7.00. In test [2], this compound showed a pEC50 of 6.30 to 7.00.
`O=C(NCc1cccc(OC(F)(F)F)c1)c1cn(CCC(F)Cn2cc(C(=O)N[C@@H](CO)c3ccccc3)nn2)nn1` (stereo partly drawn) [Example 461, 1-{2-fluoro-4-[4-({[3-(trifluoromethoxy)phenyl]methyl}carbamoyl)-1H-1,2,3-triazol-1-yl]butyl}-N-[(1R)-2-hydroxy-1-phenylethyl]-1H-1,2,3-triazole-4-carboxamide]: the negative-log IC50 (pIC50) in test [1] was 6.30 to 7.00. Also, the pEC50 in test [2] is 5.30 to 6.30.
Take `O=C(NCc1cccc(OC(F)(F)F)c1)c1cn(CCC(F)Cn2cc(C(=O)N[C@H](CO)c3ccccc3)nn2)nn1` (stereo partly drawn) [Example 462, 1-{2-fluoro-4-[4-({[3-(trifluoromethoxy)phenyl]methyl}carbamoyl)-1H-1,2,3-triazol-1-yl]butyl}-N-[(1S)-2-hydroxy-1-phenylethyl]-1H-1,2,3-triazole-4-carboxamide]: the pIC50 in test [1] is more than 7.00. In test [2], this compound had a negative-log EC50 (pEC50) of 6.30 to 7.00.
Consider `O=C(NCc1cccc(OC(F)(F)F)c1)c1cn(CC(F)CCc2nnc(C(=O)NCc3cc(C(F)(F)F)ccn3)s2)nn1` (centres unmarked) [Example 463, 5-{3-fluoro-4-[4-({[3-(trifluoromethoxy)phenyl]methyl}carbamoyl)-1H-1,2,3-triazol-1-yl]butyl}-N-{[4-(trifluoromethyl)pyridin-2-yl]methyl}-1,3,4-thiadiazole-2-carboxamide], for which the pIC50 in test [1] was more than 7.00. Moreover, the negative-log EC50 (pEC50) in test [2] is more than 7.00.
`O=C(NCc1cccc(OC(F)(F)F)c1)c1cn(CC(F)CCc2nnc(C(=O)NCc3ccc(C(F)(F)F)cn3)s2)nn1` (centres unmarked) [Example 464, 5-{3-fluoro-4-[4-({[3-(trifluoromethoxy)phenyl]methyl}carbamoyl)-1H-1,2,3-triazol-1-yl]butyl}-N-{[5-(trifluoromethyl)pyridin-2-yl]methyl}-1,3,4-thiadiazole-2-carboxamide]: the pIC50 in test [1] was more than 7.00. Further, the negative-log EC50 (pEC50) in test [2] is more than 7.00.
Turning to `O=C(NCc1cc(OC(F)(F)F)ccc1F)c1cn(CC(F)CCc2nnc(C(=O)NCc3ccc(C(F)(F)F)cn3)s2)nn1` (centres unmarked) [Example 465, 5-{3-fluoro-4-[4-({[2-fluoro-5-(trifluoromethoxy)phenyl]methyl}carbamoyl)-1H-1,2,3-triazol-1-yl]butyl}-N-{[5-(trifluoromethyl)pyridin-2-yl]methyl}-1,3,4-thiadiazole-2-carboxamide], the pIC50 in test [1] is more than 7.00. Moreover, the negative-log EC50 (pEC50) in test [2] was more than 7.00.
As for `O=C(NCc1cccc(F)c1)c1cn(CCC(F)Cn2cc(C(=O)NCc3cc(C(F)(F)F)ccn3)nn2)nn1` (centres unmarked) [Example 466, 1-[2-fluoro-4-(4-{[(3-fluorophenyl)methyl]carbamoyl}-1H-1,2,3-triazol-1-yl)butyl]-N-{[4-(trifluoromethyl)pyridin-2-yl]methyl}-1H-1,2,3-triazole-4-carboxamide], the pIC50 in test [1] is more than 7.00. The compound also had a negative logarithm of the EC50 (pEC50) in test [2] of more than 7.00.
In the case of `O=C(NCc1cc(C(F)(F)F)ccn1)c1cn(CC(F)CCn2cc(C(=O)N[C@@H](CO)c3ccccc3)nn2)nn1` (stereo partly drawn) [Example 467, 1-[2-fluoro-4-(4-{[(1R)-2-hydroxy-1-phenylethyl]carbamoyl}-1H-1,2,3-triazol-1-yl)butyl]-N-{[4-(trifluoromethyl)pyridin-2-yl]methyl}-1H-1,2,3-triazole-4-carboxamide], in test [1], the negative logarithm of the IC50 (pIC50) is 6.30 to 7.00. In test [2], this compound showed a negative-log EC50 (pEC50) of 6.30 to 7.00.
In the case of `COc1cccc(CNC(=O)c2cn(CCC(F)Cn3cc(C(=O)NCc4cc(C(F)(F)F)ccn4)nn3)nn2)c1` (centres unmarked) [Example 468, 1-[2-fluoro-4-(4-{[(3-methoxyphenyl)methyl]carbamoyl}-1H-1,2,3-triazol-1-yl)butyl]-N-{[4-(trifluoromethyl)pyridin-2-yl]methyl}-1H-1,2,3-triazole-4-carboxamide], the negative-log IC50 (pIC50) in test [1] is more than 7.00. In test [2], the pEC50 is more than 7.00.
In the case of `O=C(NCc1ccc(OC(F)(F)F)cc1)c1cn(CCC(F)Cn2cc(C(=O)NCc3cc(C(F)(F)F)ccn3)nn2)nn1` (centres unmarked) [Example 469, 1-{2-fluoro-4-[4-({[4-(trifluoromethoxy)phenyl]methyl}carbamoyl)-1H-1,2,3-triazol-1-yl]butyl}-N-{[4-(trifluoromethyl)pyridin-2-yl]methyl}-1H-1,2,3-triazole-4-carboxamide], the pIC50 in test [1] is more than 7.00. Moreover, in test [2], the negative-log EC50 (pEC50) was more than 7.00.
`O=C(NCc1cc(C(F)(F)F)ccn1)c1cn(CCC(F)Cn2cc(C(=O)NCc3cc(C(F)(F)F)ccn3)nn2)nn1` (centres unmarked) [Example 470, 1-{2-fluoro-4-[4-({[4-(trifluoromethyl)pyridin-2-yl]methyl}carbamoyl)-1H-1,2,3-triazol-1-yl]butyl}-N-{[4-(trifluoromethyl)pyridin-2-yl]methyl}-1H-1,2,3-triazole-4-carboxamide]: the pIC50 in test [1] is more than 7.00. In test [2], this compound showed a negative-log EC50 (pEC50) of more than 7.00.
As to `O=C(NCC1CCCC1)c1cn(CCC(F)Cn2cc(C(=O)NCc3cc(C(F)(F)F)ccn3)nn2)nn1` (centres unmarked) [Example 471, 1-(4-{4-[(cyclopentylmethyl)carbamoyl]-1H-1,2,3-triazol-1-yl}-2-fluorobutyl)-N-{[4-(trifluoromethyl)pyridin-2-yl]methyl}-1H-1,2,3-triazole-4-carboxamide], the pIC50 in test [1] was more than 7.00. Further, the negative-log EC50 (pEC50) in test [2] is 6.30 to 7.00.
For `O=C(NCC1CCCCO1)c1cn(CCC(F)Cn2cc(C(=O)NCc3cc(C(F)(F)F)ccn3)nn2)nn1` (centres unmarked) [Example 472, 1-(2-fluoro-4-{4-[(oxan-2-ylmethyl)carbamoyl]-1H-1,2,3-triazol-1-yl}butyl)-N-{[4-(trifluoromethyl)pyridin-2-yl]methyl}-1H-1,2,3-triazole-4-carboxamide], in that order: 6.30 to 7.00 and 6.30 to 7.00.
Regarding `O=C(NCC1CCCOC1)c1cn(CCC(F)Cn2cc(C(=O)NCc3cc(C(F)(F)F)ccn3)nn2)nn1` (centres unmarked) [Example 473, 1-(2-fluoro-4-{4-[(oxan-3-ylmethyl)carbamoyl]-1H-1,2,3-triazol-1-yl}butyl)-N-{[4-(trifluoromethyl)pyridin-2-yl]methyl}-1H-1,2,3-triazole-4-carboxamide], the pIC50 in test [1] is 6.30 to 7.00. Moreover, in test [2], the negative logarithm of the EC50 (pEC50) was 6.30 to 7.00.
Turning to `O=C(NCc1cccc(C(F)(F)F)n1)c1cn(CCC(F)Cn2cc(C(=O)NCc3cc(C(F)(F)F)ccn3)nn2)nn1` (centres unmarked) [Example 474, 1-{2-fluoro-4-[4-({[6-(trifluoromethyl)pyridin-2-yl]methyl}carbamoyl)-1H-1,2,3-triazol-1-yl]butyl}-N-{[4-(trifluoromethyl)pyridin-2-yl]methyl}-1H-1,2,3-triazole-4-carboxamide], the pIC50 in test [1] is more than 7.00. For the same compound, the pEC50 in test [2] was more than 7.00.

Usually pIC50 stands for the IC50 on a negative log10 scale, so that one unit is a factor of ten. The pEC50 is the EC50 on a negative log10 scale, so that one unit is a factor of ten.
